Holding throughout (assay type): cell-based
One experiment deals with C3A HCC cells. Description: Single-agent cell proliferation (AlamarBlue), C3A. The note with it: Homo sapiens, 72 h, drug alone, proliferation 3 days post drug treatment. The method, then:
(§1) Cell culture: HCC cells were maintained in EMEM medium with 10% fetal bovine serum, except Huh7 were maintained in DMEM. All cells were maintained at 37° C. in a humidified of 95% air and 5% CO2.
(§2) miR-Rx34 and tivantinib and EMD1214063 treatment: To determine the IC50 value of each drug alone, 2,000 cells per well were seeded in a 96-well plate format and treated with either tivantinib or miR-Rx34 as follows. (i) miR-Rx34 was reverse-transfected in triplicates in a serial dilution (0.03-30 nM) using RNAiMax lipofectamine. As controls, cells were also transfected with RNAiMax alone (mock). Cells were incubated with AlamarBlue (Invitrogen) 6 days post transfection to determine cellular proliferation. Proliferation data were normalized to mock-transfected cells. (ii) Tivantinib or EMD1214063, prepared as a 10 mM stock solution in dimethyl sulfoxide (DMSO), was added to cells 3 days after seeding at a final concentration ranging from 0.1 to 100 μM for tivantinib and 0.01 and 10 μM for EMD1214063. Solvent alone (1% final DMSO) was added to cells in separate wells as a control. Three days thereafter, cellular proliferation was measured by AlamarBlue and normalized to the solvent control.
(§3) Statistical analysis: Statistical analysis was done using the Excel (Microsoft) and Graphpad software. Averages and standard deviations were calculated from triplicate experiments. […]
For orientation: Alamar Blue is a resazurin reagent that responds to reducing activity.

A further experiment has as its system SK-Hep1 HCC cells. Description: Single-agent cell proliferation (AlamarBlue), SK-Hep1. The note with it: Homo sapiens, 72 h, drug alone, proliferation 3 days post drug treatment, read-out: EMD1214063 IC50. The method, then:
as §1, §2, §3

A further experiment relates to Hep3b HCC cells. Description: Single-agent cell proliferation (AlamarBlue), Hep3b. Conditions: Homo sapiens, 72 h, drug alone, proliferation 3 days post drug treatment, read-out: Tivantinib IC50. Here is the method: as §1, §2, §3
Another experiment deals with Huh7 HCC cells. Briefly: Single-agent cell proliferation (AlamarBlue), Huh7. The note with it: Homo sapiens, Huh-7, 72 h, drug alone, proliferation 3 days post drug treatment, read-out: Tivantinib IC50. Here is the method:
as §1, §2, §3

The test system of the next experiment is HepG2 HCC cells. Description: Single-agent cell proliferation (AlamarBlue), HepG2. The note with it: Homo sapiens, 72 h, drug alone, proliferation 3 days post drug treatment, read-out: Tivantinib IC50. Here is the method:
as §1, §2, §3

The term IC50 denotes the concentration at which inhibition is half-maximal.

Molecules are shown by their SMILES. Like-named read-outs stand apart in the source and are kept apart here.

For the molecule `CN1CCC(COc2cnc(-c3cccc(Cn4nc(-c5cccc(C#N)c5)ccc4=O)c3)nc2)CC1` [EMD1214063, 3-(1-(3-(5-((1-methylpiperidin-4-yl)methoxy)pyrimidin-2-yl)benzyl)-1,6-dihydro-6-oxopyridazin-3-yl)benzonitrile], the IC50 was found to be 7 µM in the experiment on C3A HCC cells (read-out: EMD1214063 IC50) and 6.7 µM with SK-Hep1 HCC cells.
In the case of `O=C1NC(=O)[C@@H](c2cn3c4c(cccc24)CCC3)[C@@H]1c1c[nH]c2ccccc12` [Tivantinib, (3R,4R)-3-(5,6-Dihydro-4H-pyrrolo[3,2,1-ij]quinolin-1-yl)-4-(1H-indol-3-yl)-2,5-pyrrolidinedione], the IC50 lay in the range of 4.63 to 18.6 µM in the experiment on Hep3b HCC cells, 2.3 to 7.42 µM in the experiment on C3A HCC cells (read-out: Tivantinib IC50), 1.5 to 3.32 µM in the experiment on Huh7 HCC cells and 8.99 to 25 µM in the experiment on HepG2 HCC cells.

The values above are taken from patent publication US20160151406A1, “COMBINATION CANCER THERAPY WITH C-MET INHIBITORS AND SYNTHETIC OLIGONUCLEOTIDES” (Mirna Therapeutics, Inc., priority 2014, published 2016).
